Data on 26 compounds can be found in patent US12145927B2 (BRISTOL-MYERS SQUIBB COMPANY, priority 2018, dated 2024).

The structures appear in SMILES notation.

T1 sequence (P14902 whole entry): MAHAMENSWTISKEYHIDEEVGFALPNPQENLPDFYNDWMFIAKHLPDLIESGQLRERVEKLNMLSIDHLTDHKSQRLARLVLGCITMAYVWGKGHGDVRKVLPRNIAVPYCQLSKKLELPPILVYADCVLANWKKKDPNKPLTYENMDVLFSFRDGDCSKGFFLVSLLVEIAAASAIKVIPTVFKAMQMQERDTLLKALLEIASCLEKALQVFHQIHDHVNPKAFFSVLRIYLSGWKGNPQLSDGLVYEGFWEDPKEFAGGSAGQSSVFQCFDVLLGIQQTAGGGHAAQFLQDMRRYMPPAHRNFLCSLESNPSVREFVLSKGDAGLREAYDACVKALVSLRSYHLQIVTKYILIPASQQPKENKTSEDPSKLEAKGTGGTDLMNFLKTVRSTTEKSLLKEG

This test has as its target T1, human IDO1 (Homo sapiens, UniProt P14902).
T1 construct: expressed in transfected cells
Briefly: IDO inhibition assay in human IDO1/HEK293 cells (IDO1 HEK Human). The test is classed as cell-based. Particulars: HEK293 cells stably expressing human IDO1; 20 hours incubation; absorbance at 490 nm after Ehrlich reagent. Here is the method:
HEK293 cells were transfected with a pCDNA-based mammalian expression vector harboring human IDO1 cDNA (NM 002164.2) by electroporation. They were cultured in medium (DMEM with 10% FBS) containing 1 mg/ml G418 for two weeks. Clones of HEK293 cells that stably expressed human IDO1 protein were selected and expanded for IDO inhibition assay.
The human IDO1/HEK293 cells were seeded at 10,000 cells per 50 μL per well with RPMI/phenol red free media contains 10% FBS in a 384-well black wall clear bottom tissue culture plate (Matrix Technologies LLC) 100 nL of certain concentration of compound was then added to each well using ECHO liquid handling systems. The cells were incubated for 20 hours in 37° C. incubator with 5% CO2.
The compound treatments were stopped by adding trichloroacetic acid (Sigma-Aldrich) to a final concentration at 0.2%. The cell plate was further incubated at 50° C. for 30 minute. The equal volume supernatant (20 μL) and 0.2% (w/v) Ehrlich reagent (4-dimethylaminobenzaldehyde, Sigma-Aldrich) in glacial acetic acid were mixed in a new clear bottom 384-well plate. This plate was then incubated at RT for 30 minute. The absorbance at 490 nm was measured on Envision plate reader.
Compound IC50 values were calculated using the counts of 500 nM of a reference standard treatment as one hundred percent inhibition, and counts of no compound but DMSO treatment as zero percent inhibition.
For the compound `CC[C@@H]1Oc2c(NC(=O)Nc3ccc(C)cc3)cc(-c3ccccc3-c3nnn[nH]3)cc2[C@H]1c1ccccc1` (racemic) [Example 90, (+/−)-1-((trans)-5-(2-(1H-tetrazol-5-yl)phenyl)-3-phenyl-2-ethyl-2,3-dihydrobenzofuran-7-yl)-3-(p-tolyl)urea], the IC50 amounted to 18 nM. This lies in the double-digit nanomolar range.
Then `Cc1ccc(-c2nnn[nH]2)c(-c2cc(Nc3ccc(Cl)cc3F)c3c(c2)C(c2ccccc2)CCCO3)c1` (single isomer, unassigned) [Example 75, N-(4-chloro-2-fluorophenyl)-7-(5-methyl-2-(1H-tetrazol-5-yl)phenyl)-5-phenyl-2,3,4,5-tetrahydrobenzo[b]oxepin-9-amine], with 18.5 nM; and `C=C[C@H]1Oc2c(NC(=O)Cc3ccc(C)cc3)cc(-c3ccccc3-c3nnn[nH]3)cc2[C@@H]1c1ccccc1` (racemic) [Example 91, (+/−)-N-((trans)-5-(2-(1H-tetrazol-5-yl)phenyl)-3-phenyl-2-vinyl-2,3-dihydrobenzofuran-7-yl)-2-(p-tolyl)acetamide], with 89 nM; and `O=C(Nc1ccccc1F)Nc1cc(-c2ccccc2-c2nnn[nH]2)cc2c1OCCCC2c1ccccc1` (single isomer, unassigned) [10 (En.2), 1-(7-(2-(1H-tetrazol-5-yl)phenyl)-5-phenyl-2,3,4,5-tetrahydrobenzo[b]oxepin-9-yl)-3-(2-fluorophenyl)urea], with 41.4 nM.
In the case of `Cc1ccc(CC(=O)Nc2cc(-c3ccccc3-c3nnn[nH]3)cc3c2OCCCC3C2CC2)cc1` (racemic) [37 (Rac), N-(7-(2-(1H-tetrazol-5-yl)phenyl)-5-cyclopropyl-2,3,4,5-tetrahydrobenzo[b]oxepin-9-yl)-2-(p-tolyl)acetamide] it was 117 nM; in that of `Fc1ccc2nc(Nc3cc(-c4ccccc4-c4nnn[nH]4)cc4c3OCCCC4c3ccccc3)sc2c1` (single isomer, unassigned) [57 (En. 2), N-(7-(2-(1H-tetrazol-5-yl)phenyl)-5-phenyl-2,3,4,5-tetrahydrobenzo[b]oxepin-9-yl)-6-fluorobenzo[d]thiazol-2-amine], 189 nM.
In the case of `CCC(C)C1CCCOc2c(NC(=O)Cc3ccc(C)cc3)cc(-c3ccccc3-c3nnn[nH]3)cc21` (single isomer, unassigned) [30 (Dia. mix 2), N-(7-(2-(1H-tetrazol-5-yl)phenyl)-5-(sec-butyl)-2,3,4,5-tetrahydrobenzo[b]oxepin-9-yl)-2-(p-tolyl)acetamide] it was 11.7 nM.
The compound `C=CC1Oc2c(NC(=O)Nc3ccc(C)cc3)cc(-c3cc(F)ccc3C(=O)O)cc2C1c1ccccc1` (racemic) [Example 98] displayed a half-inhibitory concentration (IC50) of 87 nM.
As for `Cc1ccc(CC(=O)Nc2cc(-c3ccccc3-c3nnn[nH]3)cc3c2OCCC(C)C3c2ccccc2)cc1` (single isomer, unassigned) [Example 48, N-(7-(2-(1H-tetrazol-5-yl)phenyl)-4-methyl-5-phenyl-2,3,4,5-tetrahydrobenzo[b]oxepin-9-yl)-2-(p-tolyl)acetamide], the IC50 amounted to 12.5 nM. This IC50 lies about 7-fold lower than the previous one.
Then `CC(=O)NS(=O)(=O)c1ccccc1-c1cc(NC(=O)Nc2ccc(C)cc2)c2c(c1)C(c1ccccc1)CCCO2` (single isomer, unassigned) [59 (En. 2), N-((2-(5-phenyl-9-(3-(p-tolyl)ureido)-2,3,4,5-tetrahydrobenzo[b]oxepin-7-yl)phenyl)sulfonyl)acetamide], with 280 nM.
In the case of `Cc1ccc(NC(=O)Nc2cc(-c3ccccc3-c3nnn[nH]3)cc3c2O[C@H](C)[C@H]3c2ccccc2)cc1` (relative stereo) [Example 115, rel-1-((2R,3 S)-5-(2-(1H-tetrazol-5-yl)phenyl)-2-methyl-3-phenyl-2,3-dihydrobenzofuran-7-yl)-3-(p-tolyl)urea] it was 28 nM; in that of `Cc1ccc(Nc2cc(-c3ccccc3-c3nnn[nH]3)cc3c2OCCCC3c2ccccc2)nc1` (single isomer, unassigned) [62 (En. 2), N-(7-(2-(1H-tetrazol-5-yl)phenyl)-5-phenyl-2,3,4,5-tetrahydrobenzo[b]oxepin-9-yl)-5-methylpyridin-2-amine], 44.9 nM.
In the case of `CC1(C)Oc2c(NC(=O)Nc3ccccc3F)cc(-c3ccccc3C(=O)O)cc2C1c1ccccc1` (racemic) [Example 126, (±)-2-(7-(3-(2-Fluorophenyl)ureido)-2,2-dimethyl-3-phenyl-2,3-dihydrobenzofuran-5-yl)benzoic acid] it was 310 nM; in that of `Cc1ccc(-c2nnn[nH]2)c(-c2cc(Nc3ccc(Cl)c(F)c3)c3c(c2)C(c2ccccc2)CCCO3)c1` (single isomer, unassigned) [Example 76, N-(4-chloro-3-fluorophenyl)-7-(5-methyl-2-(1H-tetrazol-5-yl)phenyl)-5-phenyl-2,3,4,5-tetrahydrobenzo[b]oxepin-9-amine], 8.3 nM.
With `Cc1ccc(CC(=O)Nc2cc(-c3ccccc3-c3nnn[nH]3)cc3c2OCCCC3C2CC2)cc1` (single isomer, unassigned) [37 (En. 1), N-(7-(2-(1H-tetrazol-5-yl)phenyl)-5-cyclopropyl-2,3,4,5-tetrahydrobenzo[b]oxepin-9-yl)-2-(p-tolyl)acetamide], the half-inhibitory concentration (IC50) worked out at 221 nM.
Then `Cc1ccc(NC(=O)Nc2cc(-c3ccccc3-c3nnn[nH]3)cc3c2OCCCC3C)cc1` (centres unmarked) [Example 31, 1-(7-(2-(1H-tetrazol-5-yl)phenyl)-5-methyl-2,3,4,5-tetrahydrobenzo[b]oxepin-9-yl)-3-(p-tolyl)urea], with 70.8 nM; and `Cc1ccc(CC(=O)Nc2cc(-c3ccccc3-c3nnn[nH]3)cc3c2OCCCC3C(C)C)cc1` (single isomer, unassigned) [25 (En. 1), N-(7-(2-(1H-tetrazol-5-yl)phenyl)-5-isopropyl-2,3,4,5-tetrahydrobenzo[b]oxepin-9-yl)-2-(p-tolyl)acetamide], with 28.6 nM; and `CC1(C)Oc2c(NC(=O)Nc3ccccc3F)cc(-c3ccccc3-c3nnn[nH]3)cc2C1c1ccccc1` (racemic) [Example 125, (±)-1-(5-(2-(1H-Tetrazol-5-yl)phenyl)-2,2-dimethyl-3-phenyl-2,3-dihydrobenzofuran-7-yl)-3-(2-fluorophenyl)urea], with 92 nM.
`c1ccc(C2CCCOc3c(Nc4ccn5nccc5n4)cc(-c4ccccc4-c4nnn[nH]4)cc32)cc1` (single isomer, unassigned) [84 (En. 2), N-(7-(2-(1H-tetrazol-5-yl)phenyl)-5-phenyl-2,3,4,5-tetrahydrobenzo[b]oxepin-9-yl) pyrazolo[1,5-a]pyrimidin-5-amine] yielded an IC50 of 25.8 nM.
In the case of `Cc1ccc(NC(=O)Nc2cc(-c3ccccc3-c3nc(=O)o[nH]3)cc3c2OCCCC3C2CC2)cc1` (single isomer, unassigned) [Example 33-2, 1-(5-cyclopropyl-7-(2-(5-oxo-2,5-dihydro-1,2,4-oxadiazol-3-yl)phenyl)-2,3,4,5-tetrahydrobenzo[b]oxepin-9-yl)-3-(p-tolyl)urea] it was 8 nM; in that of `CC1CCOc2c(Nc3nc4ccccc4[nH]3)cc(-c3ccccc3-c3nnn[nH]3)cc2C1c1ccccc1` (single isomer, unassigned) [Example 52, N-(7-(2-(1H-tetrazol-5-yl)phenyl)-4-methyl-5-phenyl-2,3,4,5-tetrahydrobenzo[b]oxepin-9-yl)-1H-benzo[d]imidazol-2-amine], 499 nM.
In the case of `Cc1ccc(NC(=O)Nc2cc(C(C)CC(=O)O)cc3c2O[C@H](C2CC2)[C@H]3c2ccccc2)cc1` (mixture of isomers) [Example 111, rac-3-((2R,3S)-2-cyclopropyl-3-phenyl-7-(3-(p-tolyl)ureido)-2,3-dihydrobenzofuran-5-yl)butanoic acid] it was 1400 nM; in that of `Cc1ccc(-c2noc(Nc3cc(-c4ccccc4-c4nnn[nH]4)cc4c3OCCCC4c3ccccc3)n2)cc1` (single isomer, unassigned) [26 (En. 2), N-(7-(2-(1H-tetrazol-5-yl)phenyl)-5-phenyl-2,3,4,5-tetrahydrobenzo[b]oxepin-9-yl)-3-(p-tolyl)-1,2,4-oxadiazol-5-amine], 424 nM.
Then `Cc1ccc(NC(=O)Nc2cc(-c3ccccc3-c3nnn[nH]3)cc3c2OCCC(C)C3c2ccccc2)cc1` (single isomer, unassigned) [Example 46, 1-(7-(2-(1H-tetrazol-5-yl)phenyl)-4-methyl-5-phenyl-2,3,4,5-tetrahydrobenzo[b]oxepin-9-yl)-3-(p-tolyl)urea], with 0.78 nM.
`O=C(Cc1ccccc1F)Nc1cc(-c2ccccc2-c2nnn[nH]2)cc2c1OCCCC2C1CC1` (single isomer, unassigned) [40 (En. 2), N-(7-(2-(1H-tetrazol-5-yl)phenyl)-5-cyclopropyl-2,3,4,5-tetrahydrobenzo[b]oxepin-9-yl)-2-(2-fluorophenyl)acetamide] registered an IC50 of 58.6 nM.
In the case of `c1ccc(C2CCCOc3c(Nc4ccc5ccccc5n4)cc(-c4ccccc4-c4nnn[nH]4)cc32)cc1` (single isomer, unassigned) [Example 83, N-(7-(2-(1H-tetrazol-5-yl)phenyl)-5-phenyl-2,3,4,5-tetrahydrobenzo[b]oxepin-9-yl) quinolin-2-amine] it was 17.4 nM.
